Assay results taken from the NIST ThermoML archive (doi:10.1007/s10765-011-0948-4).
Several values for one entry are separate records, joined by “and”; a condition that tells them apart may be missing. Equal values may be shown once.

What was measured:
[1] = for thermal pressure coefficient: barogram technique
[2] = molar heat capacity at constant volume; details: High-temperature High-pressure adiabatci calorimeter

CCOCC [diethyl ether]
Details | Critical density, [1] [kg/m3] | Critical temperature, [1] [K] | molar heat capacity at constant volume, [2] | thermal pressure coefficient, [1] | vapor or sublimation pressure, [1]
416.1 K, Liquid | – | – | 156.77 J/K/mol | 272 kPa/K | 1599 kPa
425.19 K, Liquid | – | – | 159.36 J/K/mol | 238 kPa/K | 1906 kPa
437.14 K, Liquid | – | – | 163.81 J/K/mol | 198 kPa/K | 2280 kPa
450.6 K, Liquid | – | – | 170.26 J/K/mol | 148 kPa/K | 2931 kPa
450.77 K, Liquid | – | – | 171.96 J/K/mol | 148 kPa/K | 2933 kPa
459.61 K, Liquid | – | – | 178.63 J/K/mol | 106 kPa/K | 3315 kPa
464.79 K, Liquid | – | – | 190.49 J/K/mol | 81.8 kPa/K | 3580 kPa
466.12 K, Gas | – | – | 190.12 J/K/mol | 52.3 kPa/K | –
466.47 K, Liquid | – | – | 203.83 J/K/mol | 68 kPa/K | 3612 kPa
466.66 K, Gas | – | – | 208.5 J/K/mol | 54.3 kPa/K | –
466.75 K, Liquid | – | – | 210.65 J/K/mol | 64.5 kPa/K | 3601 kPa
466.8 K, Liquid | – | – | 218.66 J/K/mol | 61 kPa/K | 3583 kPa
466.81 K, Liquid | – | – | 233.48 J/K/mol and 245.64 J/K/mol | 59.7 kPa/K and 59.2 kPa/K | 3608 kPa and 3576 kPa
466.82 K, Gas | – | – | 234.97 J/K/mol | 55.9 kPa/K | –
466.83 K, Gas | – | – | 248.6 J/K/mol | 56.1 kPa/K | –
466.85 K, Gas | – | – | 264.24 J/K/mol | 55.9 kPa/K | –
Liquid, quasi-satatic thermogram technique | 265.1 | – | – | – | –
Liquid, quasi-static thermogram technique | – | 466.85 | – | – | –

[1]
Details | mass density
416.1 K, Liquid, Constant volume piezo-calorimeter | 534.6 kg/m3
425.19 K, Liquid, Constant volume piezo-calorimeter | 517.3 kg/m3
437.14 K, Liquid, Constant volume piezo-calorimeter | 485.2 kg/m3
450.6 K, Liquid, Constant volume piezo-calorimeter | 441.5 kg/m3
450.77 K, Liquid, Constant volume piezo-calorimeter | 440.8 kg/m3
459.61 K, Liquid, Constant volume piezo-calorimeter | 394.8 kg/m3
464.79 K, Liquid, Constant volume piezo-calorimeter | 348.2 kg/m3
466.12 K, Gas, constant volume piezo-calorimeter | 212.6 kg/m3
466.47 K, Liquid, Constant volume piezo-calorimeter | 310.8 kg/m3
466.66 K, Gas, constant volume piezo-calorimeter | 233.7 kg/m3
466.75 K, Liquid, Constant volume piezo-calorimeter | 296.7 kg/m3
466.8 K, Liquid, Constant volume piezo-calorimeter | 288.3 kg/m3
466.81 K, Liquid, Constant volume piezo-calorimeter | 278.7 kg/m3 and 275.7 kg/m3
466.82 K, Gas, constant volume piezo-calorimeter | 255 kg/m3
466.83 K, Gas, constant volume piezo-calorimeter | 260.7 kg/m3
466.85 K, Gas, constant volume piezo-calorimeter | 261.2 kg/m3
